Several values for one entry are separate records, joined by “and”; a condition that tells them apart may be missing. Equal entries are not always repeated. Toxic doses and inconclusive results are not listed. How the source made its calls: active means survival T/C of 150% or more; inactive means T/C below 125% in these data. Peptide text beside a SMILES is read from it. * marks the point of attachment. Cbz = O=C(OCc1ccccc1)*
System: P388 leukemia ip, CD2F1 mice, survival T/C
Experiment: NCI In Vivo Anticancer Drug Screen. Data for tumor model P388 Leukemia (intraperitoneal) in CD2F1 (CDF1) mice
Conditions: endpoint: median survival time, higher = longer survival
How it was run: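 Mice carrying the transplanted tumor received test compound or vehicle. Survival was recorded in each group, and the value is the treated-group measurement divided by that of the vehicle-treated control group.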

[1] = dose: 50.0 mg/kg/injection, schedule: Q01DX005 (ip), vehicle: saline with Tween-80
[2] = dose: 25.0 mg/kg/injection, schedule: Q04DX003 (ip), vehicle: saline with Tween-80
[3] = dose: 100.0 mg/kg/injection, schedule: Q04DX003 (ip), vehicle: saline with Tween-80
[4] = dose: 60.0 mg/kg/injection, schedule: Q01DX005 (ip), vehicle: Klucel (hydroxypropylcellulose) (HPC)
[5] = dose: 120.0 mg/kg/injection, schedule: Q01DX005 (ip), vehicle: Klucel (hydroxypropylcellulose) (HPC)
[6] = dose: 240.0 mg/kg/injection, schedule: Q01DX005 (ip), vehicle: Klucel (hydroxypropylcellulose) (HPC)
[7] = dose: 15.0 mg/kg/injection, schedule: Q01DX005 (ip), vehicle: saline with Tween-80
[8] = dose: 50.0 mg/kg/injection, schedule: Q01DX009 (ip), vehicle: saline with Tween-80
[9] = dose: 50.0 mg/kg/injection, schedule: Q01DX009 (ip), vehicle: saline
[10] = dose: 100.0 mg/kg/injection, schedule: Q01DX009 (ip), vehicle: saline with Tween-80
[11] = dose: 100.0 mg/kg/injection, schedule: Q01DX009 (ip), vehicle: saline
[12] = dose: 200.0 mg/kg/injection, schedule: Q01DX009 (ip), vehicle: saline
[13] = dose: 200.0 mg/kg/injection, schedule: Q04DX003 (ip), vehicle: saline with Tween-80
[14] = dose: 400.0 mg/kg/injection, schedule: Q04DX003 (ip), vehicle: saline with Tween-80
[15] = dose: 50.0 mg/kg/injection, schedule: Q01DX005 (ip), vehicle: Klucel (hydroxypropylcellulose) (HPC)
[16] = dose: 100.0 mg/kg/injection, schedule: Q01DX005 (ip), vehicle: Klucel (hydroxypropylcellulose) (HPC)
[17] = dose: 200.0 mg/kg/injection, schedule: Q01DX005 (ip), vehicle: Klucel (hydroxypropylcellulose) (HPC)
[18] = dose: 50.0 mg/kg/injection, schedule: Q01DX009 (ip), vehicle: Klucel (hydroxypropylcellulose) (HPC)
[19] = dose: 100.0 mg/kg/injection, schedule: Q01DX009 (ip), vehicle: Klucel (hydroxypropylcellulose) (HPC)
[20] = dose: 200.0 mg/kg/injection, schedule: Q01DX009 (ip), vehicle: Klucel (hydroxypropylcellulose) (HPC)

Measured: T/C

CCn1c2ccccc2c2cc(NC(=S)NC(=O)c3ccccc3)ccc21
inactive: [1] 87 % of control | dose: 100.0 mg/kg/injection, schedule: Q01DX005 (ip), vehicle: saline with Tween-80 86 % of control | dose: 200.0 mg/kg/injection, schedule: Q01DX005 (ip), vehicle: saline with Tween-80 87 % of control

CC1(C)N=C(N)N=C(N)N1c1ccc(CCc2ccc(S(=O)(=O)F)cc2)c(Cl)c1
inactive: [2] 118 % of control | dose: 33.0 mg/kg/injection, schedule: Q04DX003 (ip), vehicle: saline sonified 118 % of control | dose: 50.0 mg/kg/injection, schedule: Q04DX003 (ip), vehicle: saline sonified 118 % of control | [3] 113 % of control

O=P1(C(Cl)(Cl)Cl)NNP(=O)(C(Cl)(Cl)Cl)NN1 (centres undefined)
inactive: [4] 104 % of control | [5] 101 % of control | [6] 107 % of control

COc1ccc(-c2c3ccc(OC)cc3n3ccccc23)cc1
inactive: dose: 100.0 mg/kg/injection, schedule: Q01DX002 (ip), vehicle: saline with Tween-80 99 % of control | dose: 200.0 mg/kg/injection, schedule: Q01DX002 (ip), vehicle: saline with Tween-80 97 % of control | dose: 400.0 mg/kg/injection, schedule: Q01DX002 (ip), vehicle: saline with Tween-80 107 % of control

O=c1nc2sccn2c2ncccc12
inactive: dose: 3.75 mg/kg/injection, schedule: Q01DX005 (ip), vehicle: saline with Tween-80 96 % of control | dose: 7.5 mg/kg/injection, schedule: Q01DX005 (ip), vehicle: saline with Tween-80 94 % of control | [7] 88 % of control

COC1=CC2C3Cc4c(-c5cc(OC)c(O)c6c5CC5C7C=C(OC)C(=O)CC67CCN5C)cc(OC)c(O)c4C2(CCN3C)CC1=O (centres undefined)
inactive: [8] 97 % of control | [9] 105 % of control | [10] 102 % of control | [11] 94 % of control | [3] 104 % of control | dose: 100.0 mg/kg/injection, schedule: Q04DX003 (ip), vehicle: saline 95 % of control | [12] 105 % of control | [13] 106 % of control | dose: 200.0 mg/kg/injection, schedule: Q04DX003 (ip), vehicle: saline 93 % of control | [14] 95 % of control | dose: 400.0 mg/kg/injection, schedule: Q04DX003 (ip), vehicle: saline 96 % of control

CCOC(=O)/C(C#N)=C1/CCCN1C
inactive: dose: 100.0 mg/kg/injection, schedule: Q04DX003 (ip), vehicle: Klucel (hydroxypropylcellulose) (HPC) 107 % of control | dose: 200.0 mg/kg/injection, schedule: Q04DX003 (ip), vehicle: Klucel (hydroxypropylcellulose) (HPC) 109 % of control

NC(=S)N/N=C/c1c(Cl)nc2n1CCS2
inactive: dose: 100.0 mg/kg/injection, schedule: Q01DX001 (ip), vehicle: Klucel (hydroxypropylcellulose) (HPC) 94 % of control | dose: 200.0 mg/kg/injection, schedule: Q01DX001 (ip), vehicle: Klucel (hydroxypropylcellulose) (HPC) 93 % of control | dose: 400.0 mg/kg/injection, schedule: Q01DX001 (ip), vehicle: Klucel (hydroxypropylcellulose) (HPC) 92 % of control

CCO/C=N/n1c(C(=O)NCCCOC)nc2ccccc2c1=O
inactive: [15] 107 % of control | [16] 94 % of control | [17] 100 % of control

CC1(C)CO[Se](=O)OC1
inactive: dose: 3.13 mg/kg/injection, schedule: Q01DX009 (ip), vehicle: saline 114 % of control

Cc1ccc(Nc2cc(C(=O)O)c(Nc3ccc(C)cc3)cc2C(=O)O)cc1
inactive: [18] 102 % of control | [19] 111 % of control | [20] 102 % of control

CC1CC(C)C(C)C(C)(CN(C)C)C1 (centres undefined)
inactive: dose: 12.5 mg/kg/injection, schedule: Q01DX005 (ip), vehicle: saline with Tween-80 102 % of control | dose: 25.0 mg/kg/injection, schedule: Q01DX005 (ip), vehicle: saline with Tween-80 98 % of control | [1] 100 % of control and 96 % of control

O=C(Nc1ccc(NC(=O)Nc2cc(C(F)(F)F)ccc2Oc2ccc(Cl)c(Cl)c2)cc1)Nc1cc(C(F)(F)F)ccc1Oc1ccc(Cl)c(Cl)c1
inactive: [4] 91 % of control | [5] 98 % of control | [6] 94 % of control

CC(=O)OCC1OC(SP(c2ccccc2)c2ccccc2)C(OC(C)=O)C(OC(C)=O)C1OC(C)=O (centres undefined)
inactive: dose: 50.0 mg/kg/injection, schedule: Q01DX009 (ip), vehicle: saline + alcohol 116 % of control | dose: 100.0 mg/kg/injection, schedule: Q01DX009 (ip), vehicle: saline + alcohol 118 % of control | dose: 200.0 mg/kg/injection, schedule: Q01DX009 (ip), vehicle: saline + alcohol 108 % of control

CCN(CC)C(=O)C1CN2CCc3cc(OC)c(OC)cc3C2CC1O (centres undefined)
inactive: [15] 104 % of control and 108 % of control | [16] 106 % of control and 109 % of control | [17] 123 % of control

C1CCN(c2c3c(nc4nnnn24)CCC3)CC1
inactive: [9] 96 % of control | [11] 87 % of control | [12] 90 % of control

C[C](C)(C)[Sn]([Cl])([c]1ccccc1)[C](C)(C)C
inactive: [3] 94 % of control | [13] 104 % of control | [14] 95 % of control

[N-]=[N+]=NC(=O)c1cccs1
inactive: dose: 12.5 mg/kg/injection, schedule: Q01DX009 (ip), vehicle: saline with Tween-80 100 % of control | dose: 25.0 mg/kg/injection, schedule: Q01DX009 (ip), vehicle: saline with Tween-80 101 % of control | [8] 100 % of control

Cc1cc(Nc2ccc(N(C)C)cc2)c2cc(N(C)C)ccc2n1
inactive: [8] 96 % of control | [10] 107 % of control

CC/C([O-])=C1/C(=O)N(c2ccccc2)N=C1C.CC/C([O-])=C1/C(=O)N(c2ccccc2)N=C1C.[Cu+2]
inactive: [7] 100 % of control | dose: 30.0 mg/kg/injection, schedule: Q01DX005 (ip), vehicle: saline with Tween-80 107 % of control | dose: 60.0 mg/kg/injection, schedule: Q01DX005 (ip), vehicle: saline with Tween-80 91 % of control and 94 % of control | dose: 120.0 mg/kg/injection, schedule: Q01DX005 (ip), vehicle: saline with Tween-80 100 % of control

COc1cc(C)nc2ccc(Cc3ccc4nc(C)cc(OC)c4c3)cc12
inactive: [2] 94 % of control | dose: 50.0 mg/kg/injection, schedule: Q04DX003 (ip), vehicle: saline with Tween-80 91 % of control

CCOc1ccc(NC(=O)C2=C(C)NC(C)=C(C(=O)Nc3ccc(OCC)cc3)C2c2cccc([N+](=O)[O-])c2)cc1
inactive: dose: 15.0 mg/kg/injection, schedule: Q01DX005 (ip), vehicle: Klucel (hydroxypropylcellulose) (HPC) 98 % of control | dose: 30.0 mg/kg/injection, schedule: Q01DX005 (ip), vehicle: Klucel (hydroxypropylcellulose) (HPC) 104 % of control | [4] 92 % of control and 97 % of control

Cc1cc(C)n(C(N)=NC(=O)c2ccccc2)n1
inactive: [18] 104 % of control and 106 % of control | [19] 100 % of control | [20] 109 % of control

[Cl][Ge]([c]1ccccc1)[c]1ccccc1.[Cl][Ge]([c]1ccccc1)[c]1ccccc1
inactive: dose: 3.12 mg/kg/injection, schedule: Q01DX005 (ip), vehicle: Klucel (hydroxypropylcellulose) (HPC) 111 % of control | dose: 6.25 mg/kg/injection, schedule: Q01DX005 (ip), vehicle: Klucel (hydroxypropylcellulose) (HPC) 116 % of control | dose: 12.5 mg/kg/injection, schedule: Q01DX005 (ip), vehicle: Klucel (hydroxypropylcellulose) (HPC) 106 % of control

CCOC(=O)C1=CNc2c(C#N)cnn2C1(C(=O)OCC)c1c[nH]c2ccccc12 (centres undefined)
inactive: dose: 25.0 mg/kg/injection, schedule: Q01DX005 (ip), vehicle: Klucel (hydroxypropylcellulose) (HPC) 109 % of control | [15] 102 % of control | [16] 98 % of control | [17] 109 % of control

CC(C)CC(NC(=O)C(Cc1cnc[nH]1)NC(=O)OCc1ccccc1)C(=O)O (stereo not drawn) (Cbz-His-Leu-OH; configuration not given here)
inactive: [15] 102 % of control | [16] 104 % of control | [17] 104 % of control

Reference: PubChem BioAssay AID330 (DTP/NCI, 2004)
